Paper PMC6974726, “Acetylation changes tau interactome to degrade tau in Alzheimer’s disease animal and organoid models” (Aging Cell, 2019)

How the values were obtained:
HDAC6 = test system: HDAC6; parameters: method as in Fan, Huang, Liou, & Yang, 2018; conditions: ref Fan, Huang, Liou, & Yang, 2018; cited from earlier work
HDAC 1–11 = test: HDAC enzymatic assay panel (IC50 heat maps); assay type: biochemical; conditions: HDAC 1–11, recombinant human enzymes
Description: Data are expressed as mean ± SEM.
The percentages of enzyme activity (relative to DMSO controls) and IC50 values were calculated using the GraphPad Prism 4 program based on a sigmoidal dose-response equation.

Compound	acetylation of Hsp90 (HDAC6)	ubiquitination of phosphorylated tau (HDAC6)	selectivity among HDAC isoforms (heat maps of IC50 values) (HDAC 1–11)
O=C(NO)c1ccc(CNc2cccc3cccnc23)cc1 [MPT0G211]	increased	increased	
Cc1[nH]c2ccccc2c1CCNCc1ccc(/C=C/C(=O)NO)cc1 [panobinostat]			no selectivity among HDAC isoforms
